Assay results: US20210186879A1, “TARGETED DELIVERY OF HYDROPHILIC DRUGS TO LUNG” (DOUBLE BOND PHARMACEUTICALS AB, priority 2016, published 2021)
Values belong to the compound of their own block, whether it stands above or below them.

Assays:
[1] = Solubility in aqueous ethanol (UV method); assay type: physicochemical; conditions: for Solubility in 20% ethanol: doxycycline salts, Table 9, in mg/mL
Method: The mixture was centrifuged at 3000 rpm for 10 min and the supernatant filtered through a 0.2 micrometer filter to remove aggregates of undissolved solid product. The solubility of the compound was determined by a UV method. Particle size analysis was accomplished by laser diffraction method.

[2] = In vivo distribution of doxorubicin in lung and femoral muscle of Californian rabbits; conditions: 1.25 mg/kg i.v. marginal ear vein, 4 hours, ± SD
Method: (§1) For in vivo investigation both rats and rabbits were used: female Wistar rats 60-75 days old weighing 300 g±30 g and Californian breed male rabbits 75-90 days old weighing 2000 g±250 g were selected. […] Different doxorubicin containing formulations with a total doxorubicin dose 5 mg/kg were administered via a single bolus injection into the tail for rats and via a slow flow of 1 ml/min in the marginal ear vein for rabbits.
(§2) Five or six pieces of lung tissue of a total weight of about 1 g were taken from different parts of a lung. The samples were homogenized with a solution of aqueous ethanol containing HCl for 20 s at 7000 rpm and for 10 s at 11000 rpm. […] Doxorubicin and doxycycline (DOC) concentration in the final supernatant was determined with fluorometric analysis and high-performance liquid chromatography respectively.
Suspension of complexes of doxorubicin and doxorubicin hydrochloride were administered via a slow flow of 1 ml/min to rabbits in the marginal ear vein with a total doxorubicin dose 1.25 mg/kg. Animals were sacrificed after 4 hours after administration. Concentration of doxorubicin in lung and femoral muscle was determined in accordance to the procedure described above. As it is seen from table 8 the concentration of doxorubicin in femoral muscle as a representation of a system concentration is not increased for complexes compared with doxorubicin hydrochloride.

[3] = In vivo distribution of doxorubicin in lung and blood serum of Wistar rats; conditions: 4 hours; for Blood serum DOX / Lung tissue DOX: 5 mg/kg i.v. single bolus, ± SD
Method: as §1, §2
An aqueous solution of doxorubicin hydrochloride, an aqueous suspension of doxorubicin alkane sulfate and an aqueous suspension of doxorubicin alkyl sulfonate were administered via a single bolus injection into the tail Animals were sacrificed after 4 hours after administered via a single bolus injection into the tail; total doxorubicin dose 5 mg/kg. […] The results are summarized in Table 7 and illustrated in FIG. 10.

[4] = In vivo distribution of doxycycline in lung and blood serum of Wistar rats; conditions: 30 min; for Blood serum Difference / Lung tissue Difference: relative to control CI-DOX (1); for Blood serum DOX / Lung tissue DOX: doxycycline, 3 mg/kg i.v. single bolus, ± SD
Method: as §2

[5] = doxorubicin alkyl sulfates and alkane sulfonates, 30% ethanol (v/v)
[6] = doxycycline alkane sulfonates and alkyl sulfates, 20% aqueous ethanol
[7] = irinotecan alkane sulfonates, 30% ethanol (v/v) per table title
[8] = mitoxantrone alkyl sulfates and alkane sulfonates, 30% ethanol (v/v)

SMILES: CCCCCCCCCCOS(=O)(=O)O.COc1cccc2c1C(=O)c1c(O)c3c(c(O)c1C2=O)CC(O)(C(=O)CO)CC3OC1CC(N)C(O)C(C)O1 (stereo not shown) [doxorubicin CnH2n+1OSO3^− n=10]
Solubility [1, 5]: 507.7 µg/mL

SMILES: CCCCCCCCCCCCOS(=O)(=O)O.COc1cccc2c1C(=O)c1c(O)c3c(c(O)c1C2=O)C[C@@](O)(C(=O)CO)C[C@@H]3O[C@H]1C[C@H](N)[C@H](O)[C@H](C)O1 [doxorubicin CnH2n+1OSO3^− n=12]
Femoral muscle DOX [2]: 0.20 ± 0.02 µg/kg | Lung tissue DOX [2]: 1.61 ± 0.25 µg/kg | Blood serum DOX [3]: 0.021 ± 0.007 µg/kg | Lung tissue DOX [3]: 0.77 ± 0.19 µg/kg

SMILES: CCCCCCCCCCCCCCCCCCOS(=O)(=O)O.COc1cccc2c1C(=O)c1c(O)c3c(c(O)c1C2=O)CC(O)(C(=O)CO)CC3OC1CC(N)C(O)C(C)O1 (stereo not shown) [doxorubicin CnH2n+1OSO3^− n=18]
Solubility [1, 5]: 2.6 µg/mL

SMILES: CCCCCCCCCCS(=O)(=O)O.COc1cccc2c1C(=O)c1c(O)c3c(c(O)c1C2=O)CC(O)(C(=O)CO)CC3OC1CC(N)C(O)C(C)O1 (stereo not shown) [doxorubicin CnH2n+1SO3^− n=10]
Solubility [1, 5]: 1064 µg/mL

SMILES: CCCCCCCCCCCCS(=O)(=O)O.COc1cccc2c1C(=O)c1c(O)c3c(c(O)c1C2=O)CC(O)(C(=O)CO)CC3OC1CC(N)C(O)C(C)O1 (stereo not shown) [doxorubicin CnH2n+1SO3^− n=12]
Blood serum DOX [3]: 0.014 ± 0.003 µg/kg | Lung tissue DOX [3]: 0.88 ± 0.09 µg/kg | Blood serum Relative difference ([3]; relative to control CI-DOX (1)): 0.75 | Lung tissue Relative difference ([3]; relative to control CI-DOX (1)): 1.24

SMILES: CCCCCCCCCCCCCCS(=O)(=O)O.COc1cccc2c1C(=O)c1c(O)c3c(c(O)c1C2=O)CC(O)(C(=O)CO)CC3OC1CC(N)C(O)C(C)O1 (stereo not shown) [doxorubicin CnH2n+1SO3^− n=14]
Solubility [1, 5]: 45.96 µg/mL

SMILES: CCCCCCCCCCCCCCCCCCS(=O)(=O)O.COc1cccc2c1C(=O)c1c(O)c3c(c(O)c1C2=O)CC(O)(C(=O)CO)CC3OC1CC(N)C(O)C(C)O1 (stereo not shown) [doxorubicin CnH2n+1SO3^− n=18]
Solubility [1, 5]: 2.79 µg/mL

SMILES: CC1c2cccc(O)c2C(O)=C2C(=O)C3(O)C(O)=C(C(N)=O)C(=O)C(N(C)C)C3C(O)C21.CCCCCCCCCCOS(=O)(=O)O (stereo not shown) [doxycycline CnH2n+1OSO3^− n=10]
Solubility [1, 6]: 3777 µg/mL

SMILES: CC1c2cccc(O)c2C(O)=C2C(=O)C3(O)C(O)=C(C(N)=O)C(=O)C(N(C)C)C3C(O)C21.CCCCCCCCCCCCOS(=O)(=O)O (stereo not shown) [doxycycline CnH2n+1OSO3^− n=12]
Blood serum Difference [4]: 1.10 | Lung tissue Difference [4]: 3.20 | Blood serum DOX [4]: 127 ± 22 ng/mL | Lung tissue DOX [4]: 551 ± 185 ng/mL

SMILES: CC1c2cccc(O)c2C(O)=C2C(=O)C3(O)C(O)=C(C(N)=O)C(=O)C(N(C)C)C3C(O)C21.CCCCCCCCCCCCCCOS(=O)(=O)O (stereo not shown) [doxycycline CnH2n+1OSO3^− n=14]
Blood serum Difference [4]: 0.39 | Lung tissue Difference [4]: 9.20 | Blood serum DOX [4]: 45 ± 1 ng/mL | Lung tissue DOX [4]: 1582 ± 101 ng/mL | Solubility [1, 6]: 117.8 µg/mL | Solubility in 20% ethanol [1]: 0.1178

SMILES: CC1c2cccc(O)c2C(O)=C2C(=O)C3(O)C(O)=C(C(N)=O)C(=O)C(N(C)C)C3C(O)C21.CCCCCCCCCCCCCCCCOS(=O)(=O)O (stereo not shown) [doxycycline CnH2n+1OSO3^− n=16]
Solubility [1, 6]: 31.99 µg/mL

SMILES: CC1c2cccc(O)c2C(O)=C2C(=O)C3(O)C(O)=C(C(N)=O)C(=O)C(N(C)C)C3C(O)C21.CCCCCCCCCCCCCCCCCCOS(=O)(=O)O (stereo not shown) [doxycycline CnH2n+1OSO3^− n=18]
Solubility [1, 6]: 5.23 µg/mL

SMILES: CCCCCCCCOS(=O)(=O)O.CCCCCCCCOS(=O)(=O)O.O=C1c2c(O)ccc(O)c2C(=O)c2c(NCCNCCO)ccc(NCCNCCO)c21 [mitoxantrone CnH2n+1OSO3^− n=8]
Solubility [1, 8]: 780.6 µg/mL

SMILES: CCCCCCCCCCOS(=O)(=O)O.CCCCCCCCCCOS(=O)(=O)O.O=C1c2c(O)ccc(O)c2C(=O)c2c(NCCNCCO)ccc(NCCNCCO)c21 [mitoxantrone CnH2n+1OSO3^− n=10]
Solubility [1, 8]: 175.8 µg/mL

SMILES: CCCCCCCCCCCCCCOS(=O)(=O)O.CCCCCCCCCCCCCCOS(=O)(=O)O.O=C1c2c(O)ccc(O)c2C(=O)c2c(NCCNCCO)ccc(NCCNCCO)c21 [mitoxantrone CnH2n+1OSO3^− n=14]
Solubility [1, 8]: 7.2 µg/mL

SMILES: CCCCCCCCS(=O)(=O)O.CCCCCCCCS(=O)(=O)O.O=C1c2c(O)ccc(O)c2C(=O)c2c(NCCNCCO)ccc(NCCNCCO)c21 [mitoxantrone CnH2n+1SO3^− n=8]
Solubility [1, 8]: 1348 µg/mL

SMILES: CCCCCCCCCCS(=O)(=O)O.CCCCCCCCCCS(=O)(=O)O.O=C1c2c(O)ccc(O)c2C(=O)c2c(NCCNCCO)ccc(NCCNCCO)c21 [mitoxantrone CnH2n+1SO3^− n=10]
Solubility [1, 8]: 294.9 µg/mL

SMILES: CCCCCCCCCCCCS(=O)(=O)O.CCCCCCCCCCCCS(=O)(=O)O.O=C1c2c(O)ccc(O)c2C(=O)c2c(NCCNCCO)ccc(NCCNCCO)c21 [mitoxantrone CnH2n+1SO3^− n=12]
Solubility [1, 8]: 683.1 µg/mL

SMILES: CCCCCCCCCCCCCCS(=O)(=O)O.CCCCCCCCCCCCCCS(=O)(=O)O.O=C1c2c(O)ccc(O)c2C(=O)c2c(NCCNCCO)ccc(NCCNCCO)c21 [mitoxantrone CnH2n+1SO3^− n=14]
Solubility [1, 8]: 2.03 µg/mL

Results, then the compound that gave them:

Solubility [1, 6]: 3165 µg/mL
SMILES: CC1c2cccc(O)c2C(O)=C2C(=O)C3(O)C(O)=C(C(N)=O)C(=O)C(N(C)C)C3C(O)C21.CCCCCCCCCCS(=O)(=O)O (stereo not shown) [doxycycline CnH2n+1SO3^− n=10]

Blood serum Difference [4]: 0.53 | Lung tissue Difference [4]: 5.48 | Blood serum DOX [4]: 61 ± 7 ng/mL | Lung tissue DOX [4]: 943 ± 600 ng/mL | Solubility [1, 6]: 320.3 µg/mL | Solubility in 20% ethanol [1]: 0.3203
SMILES: CC1c2cccc(O)c2C(O)=C2C(=O)C3(O)C(O)=C(C(N)=O)C(=O)C(N(C)C)C3C(O)C21.CCCCCCCCCCCCS(=O)(=O)O (stereo not shown) [doxycycline CnH2n+1SO3^− n=12]

Solubility [1, 6]: 55.1 µg/mL
SMILES: CC1c2cccc(O)c2C(O)=C2C(=O)C3(O)C(O)=C(C(N)=O)C(=O)C(N(C)C)C3C(O)C21.CCCCCCCCCCCCCCS(=O)(=O)O (stereo not shown) [doxycycline CnH2n+1SO3^− n=14]

Blood serum Difference [4]: 0.22 | Lung tissue Difference [4]: 11.74 | Blood serum DOX [4]: 25 ± 2 ng/mL | Lung tissue DOX [4]: 2020 ± 117 ng/mL | Solubility [1, 6]: 10.34 µg/mL | Solubility in 20% ethanol [1]: 0.0103
SMILES: CC1c2cccc(O)c2C(O)=C2C(=O)C3(O)C(O)=C(C(N)=O)C(=O)C(N(C)C)C3C(O)C21.CCCCCCCCCCCCCCCCS(=O)(=O)O (stereo not shown) [doxycycline CnH2n+1SO3^− n=16]

Solubility [1, 6]: 1.81 µg/mL
SMILES: CC1c2cccc(O)c2C(O)=C2C(=O)C3(O)C(O)=C(C(N)=O)C(=O)C(N(C)C)C3C(O)C21.CCCCCCCCCCCCCCCCCCS(=O)(=O)O (stereo not shown) [doxycycline CnH2n+1SO3^− n=18]

Solubility [1, 7]: 834.8 µg/mL
SMILES: CCCCCCCCCCS(=O)(=O)O.CCc1c2c(nc3ccc(OC(=O)N4CCC(N5CCCCC5)CC4)cc13)-c1cc3c(c(=O)n1C2)COC(=O)C3(O)CC (stereo not shown) [irinotecan alkane sulfonate n=10]

Solubility [1, 7]: 154.5 µg/mL
SMILES: CCCCCCCCCCCCS(=O)(=O)O.CCc1c2c(nc3ccc(OC(=O)N4CCC(N5CCCCC5)CC4)cc13)-c1cc3c(c(=O)n1C2)COC(=O)C3(O)CC (stereo not shown) [irinotecan alkane sulfonate n=12]

Solubility [1, 7]: 70.64 µg/mL
SMILES: CCCCCCCCCCCCCCS(=O)(=O)O.CCc1c2c(nc3ccc(OC(=O)N4CCC(N5CCCCC5)CC4)cc13)-c1cc3c(c(=O)n1C2)COC(=O)C3(O)CC (stereo not shown) [irinotecan alkane sulfonate n=14]

Solubility [1, 7]: 14.76 µg/mL
SMILES: CCCCCCCCCCCCCCCCS(=O)(=O)O.CCc1c2c(nc3ccc(OC(=O)N4CCC(N5CCCCC5)CC4)cc13)-c1cc3c(c(=O)n1C2)COC(=O)C3(O)CC (stereo not shown) [irinotecan alkane sulfonate n=16]
